Data from patent US12383500B2, “Nanoliposome compositions and methods of using the same” (United States Government as represented by the Department …, priority 2018, dated 2025).

Columns and labels:
[1] = test system: human adipose and leptomeningeal arterioles; assay: Endothelial function of human arterioles exposed to medin; details: medin 1 μM; Aβ42 0.5 μM
human umbilical vein ECs [2] = assay: Endothelial cell immune activation (gene and protein expression of IL-8, IL-6, ICAM-1, PAI-1); assay type: cell-based
Protocol: (§1) Endothelial cell immune activation. Primary culture human umbilical vein ECs (passages 4-8, Lonza, Walkersville MD) were seeded into 6-well plates and grown to full confluence. Human umbilical vein ECs have been extensively used to study vascular cell behavior in neurodegenerative disease studies such as AD and VaD as they show similarity in properties as brain ECs, including Aβ metabolism^23, 24, expression of tight junction proteins^25 and metabolic interactions with neural cells^26. ECs were exposed to 20 hours of vehicle or medin (5 μM, dose chosen as this was the mean medin concentration found in human vascular tissue) without or with NLGM1 (300 μM). Additional replicates were also treated with NLGM1 (300 μM) plus transcription factor nuclear factor erythroid 2-related factor 2 (Nrf2) inhibitor brusatol (1 μM). EC immune activation was assessed using gene and protein expressions of inflammation-related cytokines/chemokines interleukin (IL)-8, IL-6, intercellular adhesion molecule (ICAM)-1) and plasminogen activator inhibitor (PAI)-1 (primers from IDT DNA Technologies, Coralville IL)^6, 16. Following lysis, RNA was extracted and converted to cDNA using Aurum Total RNA Mini Kit and iScript cDNA synthesis kit (Bio-Rad Laboratories, Coralville IA) with β-actin as reference normalization gene normalization. […] The conditioned cell media from treated ECs were analyzed for IL-8 and IL-6 protein by enzyme linked immunosorbent assay (ELISA) using DuoSet kit (R&D Systems, Minneapolis MN). ICAM-1 protein was measured from whole cell lysate using ICAM-1 ELISA kit (R&D Systems). PAI-1 and phosphorylated NFκB (phospho-NFκB p65, Ser536, 93H1) proteins were measured using Western blot (1:500, Cell Signaling Technology, Danvers MA).

NFκB = NFκB activation (phosphorylated NFκB) in ECs, Western blot; assay type: cell-based, human; details: post-exposure to medin
Protocol: as §1

human umbilical vein ECs [3] = assay: Endothelial cell oxidative stress (superoxide, dihydroethidium fluorescence); assay type: cell-based
Nrf2 = assay: Nuclear Nrf2, HO-1 and NQO1 protein in ECs, Western blot; assay type: cell-based, human
Protocol: Activated Nrf-2 protein was measured by separating the nuclear from cytosolic components using NE-PER Nuclear and Cytoplasmic Extraction kit (Thermo Scientific, Rockford IL) and using anti-Nrf2 primary antibody (1:500, Cell Signaling) on nuclear proteins using Western blot with tubulin as loading control. Heme oxygenase (HO)-1 and NAD(P)H Quinone dehydrogenase 1 (NQO1) proteins were measured from whole cell lysates using anti-HO-1 (1:1000, Cell Signaling Technology) and anti-NQO1 (1:1000, Cell Signaling) primary antibodies.

Human primary astrocytes = assay: Astrocyte monoculture IL-8 production; assay type: cell-based; details: astrocytes exposed 20 hours to conditioned media from medin (5 μM)-treated ECs
Protocol: Astrocyte monoculture. Human primary astrocytes (passage 3, Gibco, Madison WI) were seeded in gelatin matrix (4×10^4 cells/cm^2) coated plates, allowed to attach overnight and exposed for 20 hours to vehicle, medin (5 μM), conditioned media from vehicle-treated ECs (10% vol/vol exchange) or conditioned media from medin (5 μM)-treated ECs. Conditioned media IL-8 were measured by ELISA.

[4] = test system: Human primary astrocytes with human umbilical vein ECs; assay: 3D chip astrocyte and endothelial cell coculture IL-8; assay type: cell-based; details: medin treated chips with ECs compared to medin treated chips without ECs; 20 hours
Description: Microfluidic chip fabrication and 3D chip astrocyte and endothelial cell coculture. The microfluidic platform was fabricated in polydimethylsiloxane (PDMS) using standard SU-8 photolithography and replica molding technique, consisting of two side channels for seeding of endothelial cells (ECs) and a central region for astrocyte culture. The dimensions of the side channels' (length, width and height, are 4 mm, 250 μm and 200 μm respectively. The width of the 3D central region is 2 mm Elliptical micro-posts were localized within the central tissue region (500 um width, 100 um height) with specific micro-post spacing to optimize alignment of the astrocytes, while maintaining cellular connectivity and paracrine signaling. Creation of the master silicon wafer through photolithography was executed through spin-coating of SU-8 on a wafer to a height of 200 μm. The wafer was soft-baked, then exposed to UV through a transparent photomask with the chip design. After post-baking, the developed wafer was used as the substrate for soft lithography with PDMS replica molding. A PDMS base: curing agent ratio of 10:1 was used. Then, the PDMS channels were bonded to glass slides through oxygen plasma. […]
Human umbilical vein ECs were seeded into the side channels (2×10^6 cells/mL in EC media) overnight. […] Conditioned media IL-8 were measured using ELISA.

[5] = test system: adipose arterioles exposed to amyloid LC proteins; assay: Endothelial function (max response to acetylcholine) of adipose arterioles exposed to amyloid LC proteins; parameters: species or system human; details: NLs conjugated with clusterin (300 ng/mL), control 91.6±2%
Protocol: Attempts to formulate NLs (cholesterol and phosphatidylcholine) that are conjugated with clusterin (300 ng/mL), both non-covalently as well as covalently through PEGylation, was successful.

[6] = test system: adipose arterioles exposed to amyloid LC proteins; details: LC from AL light chain amyloidosis patients; cited from earlier work
human umbilical vein ECs [7] = assay type: cell-based; details: medin + NLGM1 + brusatol (1 μM)
[8] = ECs 20 hours, medin 5 μM without or with co-treatment
[9] = ECs 20 hours, medin 5 μM without or with co-treatment, ELISA of conditioned media
[10] = medin + NLGM1 + brusatol (1 μM)

Compound: Aβ42: beta amyloid peptide
- endothelial and smooth muscle dysfunction compared to control response [1]: caused endothelial, but not smooth muscle dysfunction

Compound: medin: recombinant 50-amino acid amyloid peptide, cleavage product of milk fat globule-EGF factor 8 protein
- endothelial and smooth muscle dysfunction compared to control response [1]: caused endothelial, but not smooth muscle dysfunction
- EC ICAM-1 gene expression (human umbilical vein ECs [2]; [8]): increased
- EC IL-6 gene expression (human umbilical vein ECs [2]; [8]): increased
- EC IL-8 gene expression (human umbilical vein ECs [2]; [8]): increased
- EC PAI-1 gene expression (human umbilical vein ECs [2]; [8]): increased
- EC IL-6 protein expression (human umbilical vein ECs [2]; [9]): increased
- EC IL-8 protein expression (human umbilical vein ECs [2]; [9]): increased
- EC ICAM-1 protein expression (human umbilical vein ECs [2]; ECs 20 hours, medin 5 μM without or with co-treatment, ELISA of whole cell lysate): increased
- EC PAI-1 protein expression (human umbilical vein ECs [2]; ECs 20 hours, medin 5 μM without or with co-treatment, Western blot): increased
- NFκB activation (phosphorylated NFκB) in ECs, peak (NFκB): 1 h
- NFκB activation (phosphorylated NFκB) in ECs, persistence (NFκB): 20 h
- NFκB activation (phosphorylated NFκB) in ECs, start (NFκB): 15 min
- EC superoxide production (human umbilical vein ECs [3]; ECs 20 hours, medin without or with NLGM1): increased
- nuclear Nrf2 (Nrf2 activation) (Nrf2; ECs treated with the substance alone): no accompanying Nrf2 activation
- astrocyte IL-8 production (Human primary astrocytes): significant increase
- astrocyte media IL-8 [4]: significantly higher

Compound: free clusterin: 80-kDa chaperone glycoprotein; sCLU isoform, commercial human recombinant clusterin protein
- max response to acetylcholine [5]: 86.4±3.9%
- endothelial dysfunction in human arterioles exposed to amyloidogenic light chain (LC) proteins [6]: reversed

Compound: brusatol
- protective effect of NLGM1 against medin-induced EC immune activation (human umbilical vein ECs [2]; medin + NLGM1 + brusatol (1 μM), FIG. 8H-K): did not abolish
- protective effect of NLGM1 in terms of cell viability (human umbilical vein ECs [7]): reversed
- protective effect of NLGM1 on medin-induced superoxide production (human umbilical vein ECs [3]; [10]): abolished
- increase in HO-1 by NLGM1 co-treatment with medin (Nrf2; [10]): abolished
- increase in NQO1 by NLGM1 co-treatment with medin (Nrf2; [10]): abolished

Compound: [O-][S+](c1ccccc1)c1ccc2nnnn2n1 (stereo not shown) [RO106-9920, reference compound]
- EC ICAM-1 gene expression (human umbilical vein ECs [2]; [8]): abolished
- EC IL-6 gene expression (human umbilical vein ECs [2]; [8]): abolished
- EC IL-8 gene expression (human umbilical vein ECs [2]; [8]): abolished
- EC PAI-1 gene expression (human umbilical vein ECs [2]; [8]): abolished
